Assay results as given in patent publication US7772197B2, “1,3,5-triazines for treatment of viral diseases” (1,3,5-Triazines for Treatment of Viral Diseases, priority 2002, dated 2010).
Read-outs that look alike come from different tables or passages of the source.

What was measured:
[1] = system: HIV-1 LAI; experiment: Treatment of HIV-1-infected MT-2 cells with nucleoside analogues, p24 ELISA; assay type: cell-based; details: for EC50: Human immunodeficiency virus 1, MT2, wild-type HIV strain LAI, MT-2 cells
Procedure: The strains of HIV-1 used for primary drug screening are HIV-1 LAI or the appropriate strain of NRTI resistant HIV for studies of cross-resistance. Virus was propagated on MT-2 cells at an multiplicity of infection (MOI) of 0.01 to generate virus stocks. Briefly, the MT-2 cells were suspended in RPMI 1640 media supplemented with 10% fetal bovine serum, streptomycin and penicillin (cRPMI) and grown in a 37° C. incubator containing 5% CO2. Serial dilution of the virus and infection of MT-2 cells were followed by an ELISA detecting the capsid protein of HIV-1 (p24) and used to determine the titer of the virus stocks (50% tissue culture infectious dose (TCID50)). The ELISA was performed according to the manufacturer's instructions. The MT-2 cells are also used for visualizing the cytopathic effects of HIV-1 growth (e.g. syncytia formation).
(§1) 0.1 ml of a 3×10^5 cells/ml MT-2 cell suspension were seeded in 96-well plates at 3×10^4 cells/well. The compounds to be assayed were diluted in a separate 96-well at ten times (10×) the concentration needed for the screen. 22 μl of the 10× compounds was then added to the wells in triplicate except for six control wells, containing uninfected MT-2 cells alone (3 wells) and untreated HIV-infected MT-2 cells (3 wells). This was followed by the addition of HIV-1 at an MOI of 0.01, except for the three wells serving as the uninfected control. 0.1 ml of cRPMI was added to the uninfected well instead of virus. After the addition of virus, the 96-well plate was centrifuged at 1,200×g for two hours to enhance the adsorption of the virus by the MT-2 cells (see, e.g., O'Doherty, J. Virol. 74:10074-10080 (2000)). After the centrifugation step, the 96-well plate was then incubated in a 37° C. incubator containing 5% CO2 for three days. At the end of this time period the virus and cells were mixed by gentle pipetting followed by a 1 minute spin at 600×g to pellet the cells. The supernatant of each well was then serially diluted 1,000-fold into new 96-well plates to serve as inoculum for the next passage and assayed by ELISA for the amount of p24 produced. The next passage was performed as described above, except that the virus used to infect the cells was derived from the 1,000-fold dilution plate. To generate an EC50 value, half-log concentrations of mutagenic nucleoside or nucleotide analogue capable of eradicating virus in a single passage are tested as above to generate a dose-response curve.

[2] = system: HIV-1 RTMDR1, with 74V, 41L, 106A and 215Y mutations; experiment: Sensitivity of NRTI-resistant HIV strain RTMDR1, MT-2 cells; assay type: cell-based; details: Human immunodeficiency virus 1, MT2
Procedure: as §1, with “plate.” for “plate. To generate an EC50 value, half-log concentrations of mutagenic nucleoside or nucleotide analogue capable of eradicating virus in a single passage are tested as above to generate a dose-response curve.”
(§2) To determine if there is resistance of HIV NRTI resistant strains to mutagenic nucleoside analogues, NRTI resistant strains were grown in the presence of 5-aza-dC to determine whether the EC50 for 5-aza-dC is different from the WT strain (HIV-1 LAI). […] Growth of HIV NRTI resistant strains in the presence of the appropriate concentration of NRTI was used as a positive control.
Three HIV NRTI resistant strains (HIV-1 LAI-M184V, HIV-1 RTMDR1, with 74V, 41L, 106A and 215Y mutations, and HIV-1 RTMC, with 67N, 70R, 215F and 219Q mutations) were used to test the effectiveness of 5-aza-dC. […]

[3] = system: HIV-1 LAI-M184V; experiment: Sensitivity of NRTI-resistant HIV strain M184V, MT-2 cells; assay type: cell-based; details: Human immunodeficiency virus 1, MT2
Procedure: as §1, with “plate.” for “plate. To generate an EC50 value, half-log concentrations of mutagenic nucleoside or nucleotide analogue capable of eradicating virus in a single passage are tested as above to generate a dose-response curve.”
as §2
(§3) Three HIV NRTI resistant strains (HIV-1 LAI-M184V, HIV-1 RTMDR1, with 74V, 41L, 106A and 215Y mutations, and HIV-1 RTMC, with 67N, 70R, 215F and 219Q mutations) were used to test the effectiveness of 5-aza-dC. […] Mutations include: M41L, E44D, A62V, K65R, D67N, T69DN, T69S_SS, K70R, L74V, V75I, F77L, Y115F, F116Y, V118I, Q151M, M184V, L210W, T215F and K219QE.
(§4) The effectiveness of DHAdC was tested against wild-type HIV strains and NRTI resistant HIV strains as described in Example 2. The following strains were tested: HIV-1 LAI, wild-type; HIV-I LAI-M184V-M184V mutation with resistance to lamivudine (3TC); HIV-1 RTMDR1-74V, 41L, 106A and 215Y mutations with resistance to zidovudine, didanosine, nevirapine and other non-nucleoside reverse transcriptase inhibitors; and HIV-1 RTMC-67N, 70R, 215F and 219Q with resistance to zidovudine.

[4] = system: HIV-1 RTMC, with 67N, 70R, 215F and 219Q mutations; experiment: Sensitivity of NRTI-resistant HIV strain RTMC, MT-2 cells; assay type: cell-based; details: Human immunodeficiency virus 1, MT2
Procedure: as §1, with “plate.” for “plate. To generate an EC50 value, half-log concentrations of mutagenic nucleoside or nucleotide analogue capable of eradicating virus in a single passage are tested as above to generate a dose-response curve.”
as §2, §3, §4

[5] = system: HIV; experiment: HIV infected SCID-Hu mice; assay type: in vivo; details: 30 mg/kg/day
Procedure: After completion of this toxicology experiment, SN1212 was tested in HIV infected SCID-Hu mice. […] The discordance between viral infectivity and conventional surrogate markers of viral load, such as p24 or HIV RNA, is not surprising, as it has also been observed in vitro, and reflects the increased proportion of non-infectious viral particles in the presence of SN1212. It is also interesting to note that, of the treated groups, the immunologic profile of the SN1212 groups most closely resemble that of the uninfected group. This is compatible with the finding that infection with less “fit” viruses provides a relative clinical benefit by preserving cellular immunity.

[6] = system: bovine viral diarrhea virus (BVDV) Singer strain; experiment: Treatment of BVDV-infected BT cells; assay type: cell-based; details: Bovine viral diarrhea virus isolates and strains
Procedure: The BVDV strain used for drug testing was the Singer strain. This virus also causes a cytopathic effect that is measurable and allows estimation of the level of infection. The visible cytopathology can be used as an endpoint for titrating the virus by 50% tissue culture infectious dose (TCID50). The BVDV was propagated in bovine turbinate (BT cells). The virus TCID50 was determined by counting the cytopathic effect at the endpoint dilution. Briefly, confluent BT cells in 96-well plates were infected with the virus at 8 independent serial 10-fold dilutions. All the plates were incubated for five days at 37° C. in 5% CO2. Each well was scored as positive or negative appearance of visible cytopathic effect. The titers were calculated by the method of Reed and Muench, Am. J. Hyg. 27:493-497 (1938), and the mean titer and standard deviation for each of the 3 replicates for each drug concentration and the positive and negative control were calculated.
Virus susceptible cells (CV-1 or BT cells) were seeded in 96-well plates at 2×10^4 cells/well. The virus was inoculated onto the cell monolayers at a MOI of 0.001˜0.002 to keep 30 plaque forming units (pfu) in each well. The inoculum was maintained in 37° C. for about one hour and the supernatant was discarded. Fresh media containing appropriate drug concentration was added in each well. […] The virus titer was determined as described above. […]

[7] = system: Measles virus (MV) Nagahata strain; experiment: Treatment of measles virus-infected CV-1 cells; assay type: cell-based; details: Measles morbillivirus
Procedure: MV Nagahata strain was used for drug testing. Compared to some laboratory strains, this virus strain replicates lytically in primary human embryonic lung cells and causes extensive cytopathic effect during acute infection. The virus stock was prepared by growing the virus on CV-1 cells at a MOI of 0.01. The titer of the virus stock was determined by plaque formation assay after series dilution.
Virus susceptible cells (CV-1 or BT cells) were seeded in 96-well plates at 2×10^4 cells/well. The virus was inoculated onto the cell monolayers at a MOI of 0.001˜0.002 to keep 30 plaque forming units (pfu) in each well. The inoculum was maintained in 37° C. for about one hour and the supernatant was discarded. Fresh media containing appropriate drug concentration was added in each well. Untreated control was run in parallel. Each drug was tested in triplicate. Three days after infection, cytopathic effect (CPE) was examined in the untreated control wells. […] The plates went through one “freeze-thaw” cycle to release intracellular virus. The virus stock was saved for next round of passage. The virus titer was determined as described above. Virus at a titer of 10^5˜10^6 pfu/ml was produced by this method.

[8] = cited from earlier work
[9] = system: HIV-1 RT proviral DNA; experiment: Frequency of mutations to the viral genome induced by 5-aza-dC (sequencing of proviral clones); assay type: cell-based; details: 30 μM
Procedure: The viral genomic DNA from cells treated with the deoxyribonucleoside analog 5-aza-dC (30 μM) was purified using a Qiagen DNeasy® Kit. 1 μg of genomic DNA was used to amplify a 1 kb region of the HIV-1 RT proviral DNA by PCR. The PCR product was then cloned into a TOPO® cloning vector. A Millipore Miniprep Kit was used to purify plasmid containing proviral inserts. About 45 positive clones were sequenced in both directions by a Beckman Coulter CEQ 8000. The sequencing results were analyzed and assembled using the DNASTAR Stagman program. Each mutated base was counted and the mutation rate was calculated over the total number of sequenced nucleotides. Sixty-one mutations were found in 26,187 bases sequenced in the 5-aza-dC treated cells. Only one mutation in the drug-free control could be confirmed by sequencing in both directions and thus, the mutation rate in the control may be overestimated. Thus, sequencing of a fragment of the nucleic acid encoding HIV reverse transcriptase has confirmed that 5-aza-dC is mutagenic to the viral genome.

[10] = Cytotoxicity on MT-2 cells (MTT); assay type: cell-based; details: human
Procedure: For each compound, cytotoxicity was evaluated on MT-2 cells. MT-2 cells were seeded at 3×10^4 cells/well in 96-well plates. […] After 5 days growth in a 37° C. incubator containing 5% CO2, MTT was added to a final concentration of 0.5 mg/ml and then incubated for four hours at 37° C. 10% SDS in 0.02 N HCl was added to lyse the cells overnight at 37° C. The plates were read on a Tecan Genius microplate reader at wavelengths of 570 nm/650 nm. The dose response curve was graphed by comparing the treated cells with the untreated control and the IC50 was determined for each compound.

Question: Which results are given for `Cc1cn([C@H]2C[C@H](N=[N+]=[N-])[C@@H](CO)O2)c(=O)[nH]c1=O` [AZT, zidovudine]?
Answer: EC50 [1]: 10 nM; EC50 [2]: 60 nM; EC50 [3]: 10 nM; EC50 [4]: 300 nM

Question: With `Nc1ccn([C@@H]2CS[C@H](CO)O2)c(=O)n1` [Compound 3TC, lamivudine, reference compound] as the compound, how does the “CD4+” value [5] read?
Answer: 6.9%

Question: And the “CD4+ CD8+” value [5]?
Answer: 77%

Question: What about the “CD8+” value [5] of the same compound?
Answer: 4.2%

Question: What about the “HIV-1 RNA” value ([5]; ** p < 0.05) of the same compound?
Answer: 2.0** log copies/10^6 cells

Question: What about the Viral liter ([5]; ** p < 0.05) of the same compound?
Answer: 0** viruses/10^6 cells

Question: What about the p24 ([5]; ** p < 0.05) of the same compound?
Answer: 0** pg/10^6 cells

Question: And the EC50 [1]?
Answer: 45 nM

Question: And the EC50 [3]?
Answer: > 32000 nM

Question: And the EC50 [4]?
Answer: 330 nM

Question: Which EC50 [6] does the source give for `Nc1ncn([C@@H]2O[C@H](CO)[C@@H](O)[C@H]2O)c(=O)n1` [Compound 5-aza-C, 5-Azacytidine] here?
Answer: 10000 nM

Question: What about the EC50 [7] of the same compound?
Answer: 15000 nM

Question: For `Nc1ncn([C@H]2C[C@H](O)[C@@H](CO)O2)c(=O)n1` [Compound 5-aza-dC, 2′-deoxy-5-azacytidine], which EC50 [1] is on record?
Answer: 3 nM

Question: What about the “eradication of HIV” value ([1]; viral passage in MT-2 cells) of the same compound?
Answer: capable of eradicating HIV in a single passage

Question: And the EC50 [2]?
Answer: 10 nM

Question: And the “time to 10% degradation” value ([8]; pH 7.0, 25° C.)?
Answer: 5 h

Question: And the “time to 10% degradation” value ([8]; pH 7.0, 50° C.)?
Answer: 0.5 h

Question: What about the mutation rate % ([9]; 1 kb region of HIV-1 RT proviral DNA) of the same compound?
Answer: 0.223%

Question: What about the MUTATIONS/NUCLEOTIDE ([9]; 1 kb region of HIV-1 RT proviral DNA, 26,187 nucleotides sequenced) of the same compound?
Answer: 61/

Question: And the “AΠC CΠA mutations” value ([9]; number of mutations)?
Answer: 0

Question: What about the “AΠT TΠA mutations” value ([9]; number of mutations) of the same compound?
Answer: 8

Question: What about the “CΠG GΠC mutations” value ([9]; number of mutations) of the same compound?
Answer: 13

Question: What about the “GΠA AΠG mutations” value ([9]; number of mutations) of the same compound?
Answer: 24

Question: And the “GΠT TΠG mutations” value ([9]; number of mutations)?
Answer: 10

Question: And the “TΠC CΠT mutations” value ([9]; number of mutations)?
Answer: 6

Question: And the EC50 [3]?
Answer: 10 nM

Question: What about the EC50 [4] of the same compound?
Answer: 5 nM

Question: What about the IC50 at 5 days [10] of the same compound?
Answer: > 10000 nM

Question: For `CN1CN([C@H]2C[C@H](O)[C@@H](CO)O2)C(=O)N=C1N` [MeDHAdC, 5-methyl-5,6-dihydro-5-azadeoxycytidine], which EC50 [1] is on record?
Answer: 10000 nM
